Data from patent US11767313B2, “Compounds as nuclear transport modulators and uses thereof” (XWPHARMA LTD., priority 2018, dated 2023).
pEC50, pIC50: −log10 of the molar value. Where two headings read alike, the source gives them in different places.

Key:
XPO1 = XPO1 (Homo sapiens, UniProt O14980); assay: Compound washout assay in REV-GFP cells; details: for XPO1 inhibition post washout: 400 nM (EC90); for effect on nuclear retention of REV: at EC50 (120 nM)
Procedure: In order to evaluate the duration of XPO1 inhibition by test compounds on XPO1 protein after washout, washout assay was performed using REV-GFP cells. The test compounds and positive control were added to the cell well, and the plate was incubated the at 37° C. and 5% CO2 for 1 h. The drug-containing media were removed, the cells were washed, and the fresh media were added. The cells were imagined at the specified time points 0, 4, 24, 48, 72, and 96 hours to evaluate the inhibition of REV nuclear export. […] 4A. […] 4B. […] 4C.

A-172 = assay: CellTiter-Glo cell viability assay, A-172; type: cell-based; details: Homo sapiens, Table 6
Procedure: (§1) CellTiter-Glo® Luminescent Cell Viability assay (with Promega CellTiter 96® Luminescent CellTiter-Glo® kit) was used to study the proliferation inhibition by test compounds. Compounds were resuspended in DMSO to make a 25 mM stock suspension. Cells of cancer cell lines or normal tissues were seeded in 96-well plates at 1,500 to 5,000 cells/well overnight. Compounds were 2- or 3-fold diluted serially to obtain 10 concentrations. Then, the drugs were added to the cell wells by Bravo (Agilent) and incubated for 72 hours. The cells were lysed by adding CellTiter-Glo® Reagent (per manufacturer's instructions) and subsequently, the luminescence was read using EnVision® (PerkinElmer).
(§2) The percent of growth was calculated as follows. DMSO-treated cells were employed as vehicle control (High control, HC) and culture medium alone was employed as background (Low control, EC). % growth=100×(Lum sample−Lum EC)/(Lum HC−Lum EC). The ICso was calculated by concentration-response curve fitting using Graphpad Prism.
The inhibition activity of test compounds was determined in A-172, U87MG and 3T3-L1 cell lines.
A CellTiter-Glo® luminescent cell viability assay was performed s described in Example 1.

H460 = assay: CellTiter-Glo cell proliferation assay, H460; type: cell-based; details: Homo sapiens, NCI-H460, 72 hours, Table 1, read-out: Growth inhibition (IC50)
Procedure: as §1, §2
(§3) Hematological cancer cell lines tested included OCI-AML3, MV-4-11, KG-1, Kasumi-1, K562, THP-1; solid cancer cell lines tested included U87MG, U251, T98G, LN229, A172, H460, H2009, A549; normal cell lines tested included HCN2 and 3T3-L1. […] However, they were not toxic to in vitro cultured normal cells.

Ratio of brain to plasma = type: in vivo; details: rats, 10 mg/kg PO
Procedure: Following collection, brain tissue was rinsed with cold saline, dried on filter paper, weighed and snap-frozen by placing on dry ice. All samples were stored frozen at approximately −80° C. until analysis. At the time of analysis, brain tissue was homogenized (homogenizing solution PBS, pH 7.4), mixed with internal standard in acetonitrile, vortexed, centrifuged, and supernatant was injected for analysis. Concentration of compounds in plasma was determined using LC-MS-MS instrumentation (API 4000, Triple Quadrupole LC/MS/MS Mass Spectrometer). Plasma samples were treated with the identical method (except homogenization step) and the concentration of compound in each matrix was calculated based on generated standard curves.

U87MG cells = assay: Capase-Glo 317 apoptosis assay; type: cell-based; details: Homo sapiens, U-87 MG, 72 hours
Procedure: A Capase-Glo® 317 assay was used to determine the apoptosis activity of test compounds in U87MG cells.
Compounds were dissolved in 25 mM DMSO stock solution and serially diluted. DMSO was used as the vehicle control (high control, HC) and culture medium was used as the background (low control LC). The test compounds were applied to plates and spun at 25° C. at 1,000 RPM for 1 min and shaken on a plate shaker for 2 min. Samples (80 nL) of the compounds from the plates were transferred to 384-well cell culture plates using a liquid handler.
Cells were harvested and the cell numbers counted. 40 μL of the cell suspension with the adjusted density was added to 384-well cell culture pates. The final cell density is 1,000 cells/well. Cell culture medium only was used in the low control (LC) samples. The plates were covered with a lid and placed in a 5% CO2 incur at 37° C. for 72 hours.
After incubating for 72 hours, the plates were removed from the incubator and equilibrated at 25° C. for 15 minutes. CellTiter Glo® regen was incubated at 37° C. before the experiments. 40 μL of Capase-Glo® 317 was added into each well to be detected at a 1:1 ratio to culture medium. The plates were then placed at 25° C. for 30 min and read using an EnSpire® Plate Reader.
The % activity remaining was determined using the following formula: % Remaining Activity=[…]×(Lumsample−LumLC)/(LumHC−LUM LC), where HC is obtained from cells treated with 0.1% DMSO only, LC is obtained from culture medium only.

H2009 = assay: CellTiter-Glo cell proliferation assay, H2009; type: cell-based; details: Homo sapiens, NCI-H2009, 72 hours, Table 1, read-out: Growth inhibition (IC50)
Procedure: as §1, §2, §3

[1] = Pharmacokinetic profile in plasma; type: in vivo; details: P.O., mice
Procedure: Blood was collected from mice (n=3, or 5) to contribute to the total of 10 time points (pre-dose, 5 min, 15 min, 30 min, 1 hour, 2 hours, 4 hours, 8 hours, 12 hours and 24 hours). At the designated time points, animals were anaesthetized under isoflurane, and approximately 110 μL of blood per time point was collected via retro-orbital puncture into pre-cooled K2EDTA tubes. Blood samples were put on wet ice and centrifuged (2000 g, 5 min at 4° C.) to obtain plasma within 30 minutes of sample collection. All samples were stored frozen at approximately −80° C. until analysis. Prior to analysis, samples were mixed with internal standard in acetonitrile, vortexed, centrifuged, and supernatant was injected for analysis. Concentration of compounds in plasma was determined using LC-MS-MS instrumentation (API 4000, Triple Quadrupole LC/MS/MS Mass Spectrometer). AUC values were calculated using Phoenix Win Nonlin 6.3 software package, PO-Noncompartmental model 200 (extravascular input).

[2] = Pharmacokinetic profile in plasma; type: in vivo; details: mouse, iv, I. V., mice

Chain of XPO1 (O14980 whole entry): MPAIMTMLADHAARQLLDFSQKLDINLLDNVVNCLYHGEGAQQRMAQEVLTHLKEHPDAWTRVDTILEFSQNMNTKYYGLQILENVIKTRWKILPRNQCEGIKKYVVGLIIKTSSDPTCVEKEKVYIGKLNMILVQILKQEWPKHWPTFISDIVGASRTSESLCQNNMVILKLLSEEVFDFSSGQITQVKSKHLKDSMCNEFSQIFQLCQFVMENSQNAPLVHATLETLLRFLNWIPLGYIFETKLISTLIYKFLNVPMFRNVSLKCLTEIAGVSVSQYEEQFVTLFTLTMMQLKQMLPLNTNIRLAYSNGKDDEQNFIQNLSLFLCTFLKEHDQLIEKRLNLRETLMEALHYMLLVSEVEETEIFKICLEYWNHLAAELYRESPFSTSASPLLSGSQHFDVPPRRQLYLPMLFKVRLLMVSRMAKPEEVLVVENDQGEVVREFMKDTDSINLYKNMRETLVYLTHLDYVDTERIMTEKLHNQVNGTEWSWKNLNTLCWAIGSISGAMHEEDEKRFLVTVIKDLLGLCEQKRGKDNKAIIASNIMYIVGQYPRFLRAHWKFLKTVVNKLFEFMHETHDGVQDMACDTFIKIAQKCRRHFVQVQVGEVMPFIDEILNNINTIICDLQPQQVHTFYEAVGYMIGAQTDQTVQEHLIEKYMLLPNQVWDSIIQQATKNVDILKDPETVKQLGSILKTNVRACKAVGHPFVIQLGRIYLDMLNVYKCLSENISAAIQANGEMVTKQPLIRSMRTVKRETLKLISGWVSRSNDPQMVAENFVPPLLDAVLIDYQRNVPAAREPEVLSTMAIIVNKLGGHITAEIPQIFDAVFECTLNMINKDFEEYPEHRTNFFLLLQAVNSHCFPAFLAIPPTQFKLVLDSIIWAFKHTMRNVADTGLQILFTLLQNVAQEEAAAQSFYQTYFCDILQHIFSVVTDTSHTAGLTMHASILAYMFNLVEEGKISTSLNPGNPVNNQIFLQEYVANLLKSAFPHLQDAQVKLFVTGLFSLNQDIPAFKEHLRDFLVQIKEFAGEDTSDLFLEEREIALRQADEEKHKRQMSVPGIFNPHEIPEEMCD

SMILES: CC(C)(C)C(=O)NNC(=O)/C=C\n1cnc(-c2cc(C(F)(F)F)cc(S(F)(F)(F)(F)F)c2)n1 [Compound III, (Z)-3-(3-(3-(Pentafluorosulfanyl)-5-(trifluoromethyl)phenyl)-1H-1,2,4-triazol-1-yl)-N′-pivaloylacrylohydrazide]
- XPO1 inhibition post washout (XPO1; 4 hours post washout): sustained XPO1 inhibition
- XPO1 inhibition post washout (XPO1; by 24 hours post washout): gradually diminished
- effect on nuclear retention of REV (XPO1; 4 hours post washout): 20%
- effect on nuclear retention of REV (XPO1; 24 hours post washout): completely lost
- effect on nuclear retention of REV (XPO1; following 1-hour treatment): about 40%
- toxicity / cell number compared to the control (XPO1; washout assay): no decrease in the cell number was observed

SMILES: O=C(/C=C\n1cnc(-c2cc(C(F)(F)F)cc(S(F)(F)(F)(F)F)c2)n1)NNc1cnccn1 [Compound I, (Z)-3-(3-(3-(pentafluorosulfanyl)-5-(trifluoromethyl)phenyl)-1H-1,2,4-triazol-1-yl)-N′-(pyrazin-2-yl)acrylohydrazide]
- pIC50 (A-172): 6.39
- pIC50 (H460): 6.53
- Kp at 0.25 h (Ratio of brain to plasma; rat, brain/plasma, 0.25 h): 0.386
- Kp at 1 h (Ratio of brain to plasma; rat, brain/plasma, 1 h): 0.707
- Kp at 8 h (Ratio of brain to plasma; rat, brain/plasma, 8 h): 0.782
- brain concentration (second number of pair) (Ratio of brain to plasma; 0.25 h): 319 ng/g
- plasma concentration (first number of pair) (Ratio of brain to plasma; 0.25 h): 810 ng/g
- brain concentration (second number of pair) (Ratio of brain to plasma; 1 h): 1301 ng/g
- plasma concentration (first number of pair) (Ratio of brain to plasma; 1 h): 1887 ng/g
- brain concentration (second number of pair) (Ratio of brain to plasma; 8 h): 194 ng/g
- plasma concentration (first number of pair) (Ratio of brain to plasma; 8 h): 252 ng/g
- pEC50 (U87MG cells): 4.80
- Emax (U87MG cells; U87MG): 325%
- pIC50 (H2009): 6.28
- AUG0-inf [1]: 10430 ng·h/mL
- Cmax ([1]; mouse, po): 2550 ng/mL
- Tmax ([1]; mouse, po): 0.75 h
- half-life ([1]; mouse, po): 4.72 h
- MRT inf ([1]; mouse, po, read-out: MRT0-inf): 5.55 h
- MRT last ([1]; mouse, po, read-out: MRT0-last): 4.51 h
- AUC(0-t) [2]: 1040 ng·h/mL
- C0 [2]: 1010 ng/mL
- clearance [2]: 16 mL/min/kg
- half-life [2]: 1.62 h
- MRT last ([2]; read-out: MRT0-last): 1.56 h
- Vd ([2]; read-out: Vdss): 1.68 L/kg
